In US7598244B2, “[1,2,4]triazolo[1,5,a]pyrimidin-2-ylurea derivative and use thereof” (Nippon Kayaku Kabushiki Kaisha, priority 2003, dated 2009):
Read-outs that look alike come from different tables or passages of the source.

Experiments:
[1] = system: human dendritic cells cultured with human allogenic T cells; assay: Effect on the ability of human dendritic cells to induce the growth of allogenic T cells ([3H]-thymidine incorporation); type: cell-based; conditions: Homo sapiens; dendritic cells treated 3 days with test compound and TNF-α, then 5 days with allogenic T cells; read-out: IC50 (inhibition of DNA synthesis of lymphocytes)
How it was run: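 Immature human dendritic cells matured 3 days with compound plus TNF-α, then co-cultured with allogeneic T cells (2.5×10^3 DC : 2.0×10^5 T per well) for 5 days at 37 °C, 5% CO2. [3H]-thymidine added for the final 16 h; incorporation counted, inhibition versus compound-free cultures, IC50 derived.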

BALB/c mice = assay: Effect on mouse plaque forming cells (PFCs) to sheep erythrocytes; type: in vivo; conditions: Oral, 50 mg/kg/single administration, twice a day for 4 days
Method: Effect on Mouse Plaque Forming Cells (PFCs)
Sheep erythrocytes (Nippon Seibutsu Zairyo Center, Co., Ltd.) were intraperitoneally administered to each of BALB/c mice (Charles River Japan, Inc.; female; 8-week-old) at an amount of 1.0×10^8 cells. Thereafter, a test compound was administered thereto twice a day for 4 days after the first administration (only once on the first day) (n=4). On the day subsequent to completion of the administration of the test compound, splenic cells were prepared from the mouse, and the number of PFCs to the sheep erythrocytes was counted by the method of Cunninham (Cunninham, A. J. et al., Immunology, vol. 14, p. 599 (1968)). The number of PFCs per number of splenic cells of 1.0×10^6 was obtained. The reduction rate of the number of PFC in the mouse to which the test compound had been administered, to the number of PFCs in a control mouse to which the test compound had not been administered but only a solvent had been administered, was calculated using the following formula (4).
[formula] • Eexp: The number of PFCs per 1×10^6 splenic cells of mouse to which test compound was administered • Cexp: The number of PFCs per 1×10^6 splenic cells of mouse to which solvent was administered

mouse splenic cells = assay: Inhibitory action on blastogenesis of mouse splenic cells ([3H]-thymidine incorporation); type: cell-based; conditions: Mus musculus, Lymphocyte, 72 hours
Method: Inhibitory Action on Blastogenesis of Mouse Splenic Cells
The spleen was excised from each of BALB/c mice (Charles River Japan; female; 10-week-old), and it was allowed to pass through a mesh to obtain a single cell suspension. This single cell suspension was prepared to be 1.0×10^6 cells/ml. Thereafter, 200 μl of the suspension was fractionated into each well of a 96-well plate. Thereafter, as blastogenic stimulation, 5 μg/ml concanavalin A (Pharmacia) or 25 μg/ml Escherichia coli-derived lipopolysaccharide (DIFCO) was added to the well, and then, a solution containing a test compound with each different concentration was further added thereto at an amount of 20 μl/well. The obtained mixture was cultured at 37° C. for 72 hours in an incubator containing 5% carbon dioxide. Thereafter, a 1 μCi/10 μl/well [^3H]-thymidine solution was added thereto 64 hours after initiation of the culture. After completion of the culture (72 hours later), the cells were captured on a filter using a cell harvester, and they were then dried. Thereafter, scintillator was added thereto, and the radioactivity of [^3H]-thymidine incorporated into the cells was then measured using a liquid scintillation counter. The inhibition rate of the DNA synthesis was calculated using the aforementioned formula (3). Thereafter, the concentration of a test compound necessary for inhibition of 50% (IC50 value) was obtained.

CD80 = assay: Expression of antigen-presenting and costimulatory molecules of human peripheral blood-derived dendritic cells: CD80; type: cell-based
Method: (§1) Action on Expression of Antigen-Presenting Molecules and Costimulatory Molecules of Human Peripheral Blood-Derived Dendritic Cells
(§2) The dendritic cells obtained by the same method as in Test Example 2 were suspended in RPMI 1640 comprising 10% FCS containing 500 U/ml GM-CSF, 50 ng/ml IL-4, and 100 U/ml human recombinant tumor necrosis factor (2.5×10^6 cells/ml). Thereafter, the suspension was inoculated into a 6-well plate at an amount of 2.0 ml/well, and the test compound was then added thereto. The mixture was cultured at 37° C. for 3 days in an incubator containing 5% carbon dioxide. Thereafter, the suspended cells were recovered. The cells were then stained with fluoroisothiocyanate-labeled mouse monoclonal antibodies reacting with MHC class I (Bechman Coulter), CD1a (Immunotech), CD40 (Pharmingen), CD80 (Pharmingen), and CD83 (Immunotech). Thereafter, mean fluorescence intensity and the ratio of positive cells were measured by flow cytometry. The expression level was calculated by the formula “the mean fluorescence intensity x the ratio of positive cells,” and the inhibition rate of the surface antigen expression level of dendritic cells was then obtained by the following formula (8).
(§3) [formula] • Eexp: Expression level of surface antigens of dendritic cells cultured in the presence of test compound • Cexp: Expression level of surface antigens of dendritic cells cultured in the absence of test compound

MHC class I = assay: Expression of antigen-presenting and costimulatory molecules of human peripheral blood-derived dendritic cells: MHC class I; type: cell-based
Method: as §1, §2, §3

MHC class II = assay: Expression of antigen-presenting and costimulatory molecules of human peripheral blood-derived dendritic cells: MHC class II; type: cell-based

CC(C)NC(=O)Nc1nc2nccc(-c3cccs3)n2n1 [Example 029, 1-isopropyl-3-(7-thiophen-2-yl[1,2,4]triazolo[1,5-a]pyrimidin-2-yl)urea]
IC50 [1]: 3480 nM | Reduction rate (%) of number of PFCs (BALB/c mice): 49.3% | IC50 (mouse splenic cells; 5 μg/ml concanavalin A, read-out: Lymphocyte blastogenesis IC50 (μM), ConA stimulation): 0.71 µM | IC50 (mouse splenic cells; 25 μg/ml Escherichia coli-derived lipopolysaccharide, read-out: Lymphocyte blastogenesis IC50 (μM), LPS stimulation): 0.3 µM | Expression inhibition rate by test compound (%), CD80 (CD80; Analyte 1, 3 days): 83.8% | Expression inhibition rate by test compound (%), CD80 (CD80; Analyte 2, 3 days): 12.1% | Expression inhibition rate by test compound (%), CD80 (CD80; Analyte 3, 3 days): 26.8% | Expression inhibition rate by test compound (%), MHC class I (MHC class I; Analyte 1, 3 days): 72.3% | Expression inhibition rate by test compound (%), MHC class I (MHC class I; Analyte 2, 3 days): 63.9% | Expression inhibition rate by test compound (%), MHC class I (MHC class I; Analyte 3, 3 days): 72.6% | Expression inhibition rate by test compound (%), MHC class II (MHC class II; Analyte 1, 3 days): 65.6% | Expression inhibition rate by test compound (%), MHC class II (MHC class II; Analyte 2, 3 days): 93.3% | Expression inhibition rate by test compound (%), MHC class II (MHC class II; Analyte 3, 3 days): 50.2%
